Reference: patent publication EP0323590A2, “Carbazoyl derivatives” (ONO PHARMACEUTICAL CO., LTD., priority 1987, dated 1989)
Structures can show the parent of a compound that is named as a salt.

System: Maillard reaction
Assay: Inhibitory effect on Maillard reaction in vitro (BSA + glucose incubation, fluorescence)
Format: biochemical
Conditions: 6mM test compound, 100 mg/ml bovine serum albumin (BSA), 200 mM glucose, 0.5 M phosphatic buffer pH 7.38, a week at 37°C; fluorescence excitation 360nm, emission 450 nm
Procedure: In order to evaluate the inhibitory effect on Maillard reaction in vitro, of the compounds in the present invention, the measurement was carried out under conditions described below.
After incubation, the incubated medium was diluted 100 times with the same phosphatic buffer solution, and the fluorescence spectrum was measured at the excitation maximum of 360nm and the emission maximum of 450 nm.
Inhibition percentage of the test compounds was calculated by the following equation: [formula] ΔI₁ : fluorescence of test compounds ΔI₂ : fluorescence of (test compounds + glucose), ΔI₃ : fluorescence of (test compounds + BSA), ΔI₄ : fluorescence of (test compounds + BSA + glucose), ΔI : fluorescence of (BSA + glucose)

Point of comparison: NNC(=O)c1ccccc1N [Example 2(a), 2-aminobenzohydrazide], “Inhibitory effect (%) (6mM)” value 100%. Against it:
- Cl.Cl.NNC(=O)NCCCCCCNC(=O)NN [1(i), 4-[6-(3-aminoureido)hexyl]semicarbazide dihydrochloride] — the same, 100%
- NC(N)=O [Urea, reference compound] — lower, 28%
- CN(N)C(=O)Nc1ccccc1.Cl [1(q), 2-methyl-4-phenylsemicarbazide hydrochloride] — lower, 74%
- NNC(=O)C1CCCC1 [2(i), cyclopentancarbonylhydrozine] — lower, 37%
- NNC(=O)CCc1ccccc1 [2(f), 3-phenylpropionohydrazide] — the same, 100%
- NNC(=O)Nc1cccc2ccccc12 [1(j), 4-(1-naphthyl) semicorbazide hydrochloride] — the same, 100%
- Cl.NNC(=O)NCc1ccccc1 [1(f), 4-benzylsemicarbazide hydrochloride] — lower, 90%
- CC(=O)NN [acetohydrazide] — lower, 35%
- NNC(=O)NC1CCCCC1 [1(a), 4-cyclohexyl semicarbozide] — the same, 100%
- Cl.NNC(=O)Nc1ccc(Cl)cc1 [1(e), 4-(4-chlorophenyl) semicarbazide hydrochloride] — lower, 65%
